In brackets after ≈: the same amount, converted by molar mass. Like-named read-outs stand apart in the source and are kept apart here.
Key:
Format in all cases: cell-based
Bacillus subtilis DSM10 = assay: MIC serial dilution assay; design: key: -: no inhibition observed under test conditions; conditions: highest concentration 67 or 100 µg/mL
Source text: (§1) The minimum inhibitory concentration (MIC) for each compound was ascertained in a serial dilution assay in 96-well microtiter plates, as previously published by Kuhnert et al., using YM media for yeasts and filamentous fungi and BD^TM Difco™ Mueller Hinton Broth for bacteria.

Candida albicans DSM1665 = assay: MIC serial dilution assay; design: key: -: no inhibition observed under test conditions; conditions: highest concentration 67 or 100 µg/mL
Source text: as §1

Candida tenuis MUCL29892 = assay: MIC serial dilution assay; design: key: -: no inhibition observed under test conditions; conditions: highest concentration 67 or 100 µg/mL
Source text: as §1

[1] = tested on: Micrococcus luteus DSM1790; assay: MIC serial dilution assay; design: key: -: no inhibition observed under test conditions; conditions: highest concentration 67 or 100 µg/mL
Source text: as §1

Mucor hiemalis DSM2656 = assay: MIC serial dilution assay; design: key: -: no inhibition observed under test conditions; conditions: highest concentration 67 or 100 µg/mL
Source text: as §1

Mucor plumbeus MUCL49355 = assay: MIC serial dilution assay; design: key: -: no inhibition observed under test conditions; conditions: highest concentration 67 or 100 µg/mL
Source text: as §1

Pichia anomala DSM6766 = assay: MIC serial dilution assay; design: key: -: no inhibition observed under test conditions; conditions: highest concentration 67 or 100 µg/mL
Source text: as §1

[2] = tested on: Rhodotorula glutinis DSM10134; assay: MIC serial dilution assay; design: key: -: no inhibition observed under test conditions; conditions: highest concentration 67 or 100 µg/mL
Source text: as §1

[3] = tested on: Staphylococcus aureus DSM346; assay: MIC serial dilution assay; design: key: -: no inhibition observed under test conditions; conditions: highest concentration 67 or 100 µg/mL
Source text: as §1

[4] = tested on: cervix carcinoma cell line KB3.1; assay: In vitro cytotoxicity assay; conditions: Homo sapiens, KB 3-1, 120 h, 6 × 10^3 cells/well, treated over five days
Method: (§2) In vitro cytotoxicity assay was performed as described by Richter et al. against the mouse fibroblast cell line L929 and the cervix carcinoma cell line KB3.1.

[5] = tested on: mouse fibroblast cell line L929; assay: In vitro cytotoxicity assay; conditions: 120 h, 6 × 10^3 cells/well, treated over five days
Method: as §2

hepatitis C virus (HCV) = assay: Inhibitory effects on HCV infectivity (Renilla luciferase reporter virus in Huh-7.5 cells); conditions: for activity in the HCV assay in vitro: Huh-7.5 host cells
Method: (§3) Figure 4 Antiviral activity of 4-hydroxypleurogrisin (11). NC-Negative control, EGCG-Positive control. HCV assay was performed in triplicates and is presented as the mean ± standard deviation. The asterisk indicates statistically significant differences (* p ≤ 0.05, ** p ≤ 0.01, *** p ≤ 0.001). Huh-7.5 cells were inoculated with RLuc-Jc1 reporter viruses in the presence of 4-hydroxypleurogrisein. The inoculum was removed 4 h later and monolayers were washed three times with PBS and overlaid with fresh medium containing no inhibitors. Infected cells were lysed three days later, and reporter virus infection was determined by renilla luciferase activity (top). The cell viability was measured by determination of firefly luciferase (bottom), which is stably expressed in the target cells.
This assay was carried out as described previously by Mulwa et al.. Huh7.5 cells stably expressing Firefly luciferase (Huh7.5 Fluc) were cultured in Dulbecco’s modified minimum essential medium (DMEM, Life Technologies, Darmstadt, Germany) containing 2 mM L glutamine, 1 × minimum essential medium nonessential amino acids (MEM NEAA, Life Technologies), 100 μg/mL streptomycin, 100 IU/mL penicillin (Life Technologies), 5 μg/mL blasticidin and 10% fetal bovine serum. Cells were maintained in a 37 °C environment with 5% CO2 supply. Cells were infected with Jc1-derived Renilla reporter viruses in the presence or absence of compounds as described previously. Infected cells were lysed and then frozen at −80 °C for 1 h following measurements of Renilla and Firefly luciferase activities on a Berthold Technologies Centro XS3 Microplate Luminometer (Bad Wildbad, Germany) as indicators of viral genome replication and cell viability, respectively.

Huh7.5 Fluc cells = assay: Cell viability in HCV assay (firefly luciferase); conditions: at 20 ng/µL
Method: as §3
This assay was carried out as described previously by Mulwa et al.. Huh7.5 cells stably expressing Firefly luciferase (Huh7.5 Fluc) were cultured in Dulbecco’s modified minimum essential medium (DMEM, Life Technologies, Darmstadt, Germany) containing 2 mM L glutamine, 1 × minimum essential medium nonessential amino acids (MEM NEAA, Life Technologies), 100 μg/mL streptomycin, 100 IU/mL penicillin (Life Technologies), 5 μg/mL blasticidin and 10% fetal bovine serum. Cells were maintained in a 37 °C environment with 5% CO2 supply. […]

[6] = Yamadazyma tenuis, read-out: MIC
[7] = Hansenula anomala, read-out: MIC

Molecule	MIC (Bacillus subtilis DSM10; read-out: MIC)	MIC (Candida tenuis MUCL29892; [6])	MIC ([3]; read-out: MIC)	IC50 [4]	IC50 [5]	MIC (Candida albicans DSM1665)	MIC (Mucor plumbeus MUCL49355)	MIC [1]	MIC (Mucor hiemalis DSM2656)	MIC (Pichia anomala DSM6766)	MIC [3]	MIC (Candida tenuis MUCL29892)	MIC [2]	other results
C[C@@H]1CO[C@@H]2C3=C(C(=O)C=CC3=O)[C@H]3OC(=O)[C@@H]4CC[C@H]5[C@@H]1CC[C@@]25[C@@H]34 [Compound 1, pleurotin]	50 µg/mL (≈ 141 µM)	25 µg/mL (≈ 70.5 µM)	33.3 µg/mL (≈ 94 µM)	8.5 µg/mL (≈ 24 µM)	7.5 µg/mL (≈ 21.2 µM)									MIC (Candida albicans DSM1665; read-out: MIC): 33.3 µg/mL (≈ 94 µM); MIC ([1]; read-out: MIC): 66.7 µg/mL (≈ 188 µM); MIC (Mucor hiemalis DSM2656; read-out: MIC): 8.3 µg/mL (≈ 23.4 µM); MIC (Mucor plumbeus MUCL49355; read-out: MIC): 100 µg/mL (≈ 282 µM); MIC (Pichia anomala DSM6766; [7]): 66.7 µg/mL (≈ 188 µM); MIC ([2]; read-out: MIC): 16.7 µg/mL (≈ 47.1 µM)
C[C@@H]1CO[C@@H]2c3c(O)ccc(O)c3[C@H]3OC(=O)[C@@H]4CC[C@H]5[C@@H]1CC[C@@]25[C@@H]34 [Compound 2, leucopleurotin, reference compound]	25 µg/mL (≈ 70.1 µM)	100 µg/mL (≈ 281 µM)	33.3 µg/mL (≈ 93.4 µM)	2.8 µg/mL (≈ 7.86 µM)	2.2 µg/mL (≈ 6.17 µM)	-	-							MIC ([1]; read-out: MIC): 66.7 µg/mL (≈ 187 µM); MIC (Mucor hiemalis DSM2656; read-out: MIC): 33.3 µg/mL (≈ 93.4 µM); MIC (Pichia anomala DSM6766; [7]): 66.7 µg/mL (≈ 187 µM); MIC ([2]; read-out: MIC): 33.3 µg/mL (≈ 93.4 µM)
CC1COC2C3=C(CC4C(C(=O)O)CCC5C1CCC245)C(=O)C=CC3=O (stereo not drawn) [Compound 3, dihydropleurotinic acid, reference compound]	100 µg/mL (≈ 281 µM)	100 µg/mL (≈ 281 µM)	66.7 µg/mL (≈ 187 µM)	18 µg/mL (≈ 50.5 µM)	18 µg/mL (≈ 50.5 µM)	-		-						MIC (Mucor hiemalis DSM2656; read-out: MIC): 16.7 µg/mL (≈ 46.9 µM); MIC (Mucor plumbeus MUCL49355; read-out: MIC): 100 µg/mL (≈ 281 µM); MIC (Pichia anomala DSM6766; [7]): 66.7 µg/mL (≈ 187 µM); MIC ([2]; read-out: MIC): 33.3 µg/mL (≈ 93.4 µM)
CC1COC2C3=C(CC4C(C(=O)O)CCC5C1(O)CCC245)C(=O)C=CC3=O (stereo not drawn) [Compound 5, 3-Hydroxy-dihydropleurotinic acid]	100 µg/mL (≈ 269 µM)	100 µg/mL (≈ 269 µM)		22 µg/mL (≈ 59.1 µM)	22 µg/mL (≈ 59.1 µM)	-	-	-	-	-	-			MIC ([2]; read-out: MIC): 33.3 µg/mL (≈ 89.4 µM); activity in the HCV assay in vitro (hepatitis C virus (HCV)): devoid of any activity
C[C@@H]1CO[C@@H]2C3=C(C(=O)C=CC3=O)[C@@H](O)[C@H]3[C@H](C(=O)O)CC[C@H]4[C@@H]1CC[C@@]324 [Compound 6, 14-Hydroxy-dihydropleurotinic acid]				22 µg/mL (≈ 59.1 µM)	23 µg/mL (≈ 61.8 µM)	-	-	-	-	-	-	-	-	MIC (Bacillus subtilis DSM10): -
C[C@@H]1CO[C@@H]2c3c(O)ccc(O)c3C[C@H]3[C@H](C(=O)O)CC[C@H]4[C@@H]1CC[C@@]243 [Compound 7, Leucopleurotinic acid]				20 µg/mL (≈ 55.8 µM)	17 µg/mL (≈ 47.4 µM)	-	-	-	-	-	-	-	-	MIC (Bacillus subtilis DSM10): -
C[C@@H]1CO[C@@H]2c3c(O)ccc(O)c3C(=O)[C@H]3[C@H](C(=O)O)CC[C@H]4[C@@H]1CC[C@@]243 [Compound 8, 14-oxo-leucopleuotinic acid]	50 µg/mL (≈ 134 µM)			22 µg/mL (≈ 59.1 µM)	22 µg/mL (≈ 59.1 µM)	-	-	-	-	-	-	-	-	
C=C1CO[C@@H]2c3c(O)ccc(O)c3[C@H]3OC(=O)[C@@H]4CC[C@H]5[C@@H]1CC[C@@]25[C@@H]34 [Compound 9, Nematoctone]		25 µg/mL (≈ 70.5 µM)		18 µg/mL (≈ 50.8 µM)	21 µg/mL (≈ 59.3 µM)	-	-	-	-	-	-		-	MIC (Bacillus subtilis DSM10): -
C[C@H](CO)[C@H]1CC[C@]23C(=O)c4c(O)ccc(O)c4C(=O)[C@H]2[C@H](C(=O)O)CC[C@@H]13 [Compound 10, Di-oxo-leucopleurotinic acid]	100 µg/mL (≈ 257 µM)			22 µg/mL (≈ 56.6 µM)	22 µg/mL (≈ 56.6 µM)	-	-	-	-	-	-	-	-	
CC(C)(O)C1CCC23CC4=C(CC2C(O)(CO)CCC13)C(=O)C=CC4=O (stereo not drawn) [Compound 11, 4-Hydroxypleurogrisein]	50 µg/mL (≈ 139 µM)		33.3 µg/mL (≈ 92.4 µM)	7.5 µg/mL (≈ 20.8 µM)	6.9 µg/mL (≈ 19.1 µM)	-	-		-	-		-	-	MIC ([1]; read-out: MIC): 66.7 µg/mL (≈ 185 µM); IC50 (hepatitis C virus (HCV); Hepatitis C virus, Huh7.5, read-out: IC50 of HCV infectivity): ~5 µg/mL (≈ 13.9 µM); activity in the HCV assay in vitro (hepatitis C virus (HCV)): significant activities in vitro; inhibitory effect on HCV infectivity (hepatitis C virus (HCV); at 10 ng/µL): strong inhibitory effect; cytotoxic effects (cell viability, firefly luciferase) (Huh7.5 Fluc cells): cytotoxic effects were noted
C/C(=C\c1csc(C)n1)[C@@H]1C[C@@H]2O[C@]2(C)CCC[C@H](C)[C@H](O)[C@@H](C)C(=O)C(C)(C)[C@@H](O)CC(=O)O1 [Epothilone B, reference compound]				3e-05 µg/mL (≈ 5.91e-05 µM)	0.00062 µg/mL (≈ 0.00122 µM)									
C[C@@H]1[C@H](O)[C@@H](C)/C=C/C=C/CC/C=C/C=C/C=C/C=C/C(O[C@H]2O[C@H](C)[C@@H](O)[C@H](N)[C@@H]2O)CC2O[C@](O)(CC(O)C(O)CCC(O)CC(O)CC(O)CC(=O)O[C@H]1C)CC(O)C2C(=O)O (stereo partly drawn) [Nystatin, reference compound]						Nystatin (16.7) µg/mL	Nystatin (12.5) µg/mL		Nystatin (16.7) µg/mL	Nystatin (16.7) µg/mL		Nystatin (12.5) µg/mL	Nystatin (16.7) µg/mL	
CN(C)[C@@H]1C(O)=C(C(N)=O)C(=O)[C@@]2(O)C(O)=C3C(=O)c4c(O)cccc4[C@@](C)(O)[C@H]3[C@H](O)[C@@H]12 [Oxytetracycline, reference compound]			6.7 µg/mL (≈ 14.6 µM)											MIC ([1]; read-out: MIC): 0.4 µg/mL (≈ 0.869 µM)
Penicillin [reference compound]														MIC (Bacillus subtilis DSM10): Penicillin (6.3) µg/mL

Reference: paper PMC6222660, “Antiviral 4-Hydroxypleurogrisein and Antimicrobial Pleurotin Derivatives from Cultures of the Nematophagous Basidiomycete Hohenbuehelia grisea” (Molecules : A Journal of Synthetic Chemistry and Natural …, 2018)
